Tests used:
[1] = AUC in Sprague-Dawley rat at 1 mg/kg, iv; format: ADME, organism-based; design: dose 1 mg/kg, route intravenous; conditions: plasma
[2] = Clearance in Sprague-Dawley rat at 1 mg/kg, iv and 2 mg/kg, po; format: ADME, organism-based; conditions: in vivo
[3] = Half life in Sprague-Dawley rat at 1 mg/kg, iv and 2 mg/kg, po; format: ADME, organism-based; conditions: in vivo
[4] = Oral bioavailability in Sprague-Dawley rat at 1 mg/kg, iv and 2 mg/kg, po; format: ADME, organism-based; conditions: in vivo
[5] = molecular target: T1, Estrogen receptor (Homo sapiens, UniProt P03372)
T1 sequence (P03372 whole entry): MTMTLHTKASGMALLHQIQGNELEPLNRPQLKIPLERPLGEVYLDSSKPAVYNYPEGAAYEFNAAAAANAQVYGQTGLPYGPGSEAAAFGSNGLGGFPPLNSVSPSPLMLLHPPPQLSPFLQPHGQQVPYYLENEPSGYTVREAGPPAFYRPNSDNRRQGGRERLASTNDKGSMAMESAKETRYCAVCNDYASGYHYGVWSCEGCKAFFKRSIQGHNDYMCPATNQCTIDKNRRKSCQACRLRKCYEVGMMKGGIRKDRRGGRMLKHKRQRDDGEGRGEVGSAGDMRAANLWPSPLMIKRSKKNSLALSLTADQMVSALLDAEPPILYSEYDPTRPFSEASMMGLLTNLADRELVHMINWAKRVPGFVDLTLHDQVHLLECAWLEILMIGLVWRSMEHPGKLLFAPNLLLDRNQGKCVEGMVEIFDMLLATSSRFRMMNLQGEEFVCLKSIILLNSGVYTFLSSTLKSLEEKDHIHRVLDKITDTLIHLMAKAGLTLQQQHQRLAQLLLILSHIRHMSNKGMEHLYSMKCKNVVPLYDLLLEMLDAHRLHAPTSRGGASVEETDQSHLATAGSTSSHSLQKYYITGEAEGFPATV
Description: Agonist activity at human ERalpha transfected in HEK293 cells assessed as transactivation of alkaline phosphatase reporter gene

[6] = molecular target: T2, Estrogen receptor beta (Homo sapiens, UniProt Q92731)
Description: Agonist activity at human ERbeta transfected in HEK293 cells assessed as transactivation of alkaline phosphatase reporter gene

[7] = molecular target: T1, Estrogen receptor; remark: listed apart in the source
Description: Binding affinity to human ERalpha

[8] = molecular target: T2, Estrogen receptor beta; remark: listed apart in the source
Description: Binding affinity to human ERbeta

T2 sequence (Q92731 whole entry): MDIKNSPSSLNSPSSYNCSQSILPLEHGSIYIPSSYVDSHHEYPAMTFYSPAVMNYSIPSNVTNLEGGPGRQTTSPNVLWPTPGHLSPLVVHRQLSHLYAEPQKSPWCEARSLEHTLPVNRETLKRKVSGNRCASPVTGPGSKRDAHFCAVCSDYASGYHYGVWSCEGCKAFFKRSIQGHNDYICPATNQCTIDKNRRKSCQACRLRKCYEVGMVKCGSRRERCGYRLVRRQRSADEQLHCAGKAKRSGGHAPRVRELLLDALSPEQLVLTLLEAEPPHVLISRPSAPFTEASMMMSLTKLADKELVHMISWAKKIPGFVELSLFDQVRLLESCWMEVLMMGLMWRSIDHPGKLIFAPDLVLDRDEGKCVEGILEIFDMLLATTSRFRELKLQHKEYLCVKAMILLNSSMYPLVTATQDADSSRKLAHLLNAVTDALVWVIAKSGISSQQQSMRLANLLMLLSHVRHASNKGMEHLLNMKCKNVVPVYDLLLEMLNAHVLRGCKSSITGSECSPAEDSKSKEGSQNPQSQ

Row | SMILES | AUC [1] | clearance [2] | half-life [3] | bioavailability [4] | EC50 [5] | EC50 [6] | IC50 [7] | IC50 [8]
1 | CC[C@@]12CCC(=O)C(C(F)(F)F)=C1c1ccc3[nH]nc(F)c3c1C2 | 1.2 µM·h | 42 mL/min/kg | 1.9 h | 27% | 8.3 nM | 0.2 nM | 50.9 nM | 0.3 nM
2 | CCC12CCC(=O)C(Br)=C1c1ccc3[nH]nc(F)c3c1C2 (racemic) | – | – | – | – | 33.1 nM | 0.8 nM | 197 nM | 1.6 nM
3 | CCCCC12CCC(=O)C=C1c1ccc3[nH]ncc3c1C2 (racemic) | – | – | – | – | – | – | > 10000 nM | 283 nM
4 | CCCCC12CCC(=O)C(Br)=C1c1ccc3[nH]ncc3c1C2 (racemic) | – | – | – | – | – | – | 1410 nM | 4.9 nM
5 | CCC1=C2c3ccc4[nH]ncc4c3CC2(CC)CCC1=O (racemic) | – | – | – | – | 59 nM | 1.7 nM | 223 nM | 4 nM
6 | CC1=C2c3ccc4[nH]ncc4c3CC2(C)CCC1=O (racemic) | – | – | – | – | – | – | 4410 nM | 69 nM
7 | CCCCC12CCC(=O)C(C)=C1c1ccc3[nH]ncc3c1C2 (racemic) | – | – | – | – | – | – | 1050 nM | 12 nM
8 | CCCC[C@@]12CCC(=O)C(CC)=C1c1ccc3[nH]ncc3c1C2 | – | – | – | – | – | – | 93 nM | 1.1 nM
9 | CCCC[C@@]12CCC(=O)C(C(=O)OC)=C1c1ccc3[nH]ncc3c1C2 | – | – | – | – | – | – | 2080 nM | 5.2 nM
10 | O=C1CC[C@@]2(CCC3CC3)Cc3c(ccc4[nH]ncc34)C2=C1Br | 0.8 µM·h | 55 mL/min/kg | 1.2 h | 51% | 61 nM | 0.9 nM | 229 nM | 1.6 nM
11 | CCCC12CCC(=O)C(Br)=C1c1ccc3[nH]ncc3c1C2 (racemic) | – | – | – | – | – | – | 663 nM | 5.4 nM
12 | CCCC[C@@]12CCC(=O)C(C(F)(F)F)=C1c1ccc3[nH]ncc3c1C2 | 0.9 µM·h | 64 mL/min/kg | 0.9 h | 25% | – | – | 176 nM | 0.8 nM
13 | CCC12CCC(=O)C(C)=C1c1ccc3[nH]nc(Cl)c3c1C2 (racemic) | – | – | – | – | – | – | 2420 nM | 42.5 nM
14 | CC[C@@]12CCC(=O)C(Cl)=C1c1ccc3[nH]ncc3c1C2=O | – | – | – | – | – | – | 139 nM | 4.1 nM
15 | CC[C@@]12CCC(=O)C(c3ccccc3)=C1c1ccc3[nH]ncc3c1C2 | – | – | – | – | 72 nM | 0.8 nM | 46 nM | 1.4 nM
16 | CC[C@@]12CCC(=O)C(C(F)(F)F)=C1c1ccc3[nH]ncc3c1C2=O | 3.2 µM·h | 15 mL/min/kg | 1.2 h | 62% | 10.4 nM | 0.4 nM | 58 nM | 1.5 nM
17 | CC[C@]12CCC(=O)C(C)=C1c1ccc3[nH]ncc3c1C2 | 2 µM·h | 31 mL/min/kg | 0.8 h | 44% | 1100 nM | 935 nM | > 10000 nM | 4460 nM
18 | CC[C@@]12CCC(=O)C(Br)=C1c1ccc3[nH]ncc3c1C2 | 0.7 µM·h | 74 mL/min/kg | 0.7 h | 64% | 65 nM | 0.7 nM | 249 nM | 2.2 nM
19 | CC[C@@]12CCC(=O)C(C)=C1c1ccc3[nH]ncc3c1C2 | 1.5 µM·h | 44 mL/min/kg | 1.1 h | 51% | 104 nM | 2.1 nM | 1360 nM | 7.2 nM

Row | SMILES | AUC [1] | clearance [2] | half-life [3] | bioavailability [4] | EC50 [5] | EC50 [6] | IC50 [7] | IC50 [8]
20 | C[C@@]12CCC(=O)C(C(F)(F)F)=C1c1ccc3[nH]ncc3c1C2 | – | – | – | – | – | – | 1480 nM | 8 nM
21 | CC[C@@]12CCC(=O)C(C3CC3)=C1c1ccc3[nH]ncc3c1C2 | 1 µM·h | 58 mL/min/kg | 0.9 h | 55% | > 1000 nM | 5.8 nM | 470 nM | 7.7 nM
22 | CCC12CCC(=O)C(C)=C1c1ccc3[nH]ncc3c1C2=O (racemic) | – | – | – | – | – | – | 624 nM | 31.8 nM
23 | CCCC[C@@]12CCC(=O)C(C(F)(F)F)=C1c1ccc3[nH]ncc3c1C2=O | 0.7 µM·h | 69 mL/min/kg | 1.8 h | 21% | – | – | 40 nM | 0.9 nM
24 | CCC12CCC(=O)C(C(=O)OC)=C1c1ccc3[nH]ncc3c1C2 (racemic) | – | – | – | – | 1170 nM | 210 nM | > 10000 nM | 207 nM
25 | CCC12CCC(=O)C(C)=C1c1ccc3[nH]nc(Br)c3c1C2 (racemic) | – | – | – | – | – | – | 5880 nM | 103 nM
26 | CC[C@@]12CCC(=O)C(Cl)=C1c1ccc3[nH]nc(F)c3c1C2 | – | – | – | – | – | – | 82 nM | 1.1 nM
27 | CC[C@@]12CCC(=O)C(Cl)=C1c1ccc3[nH]ncc3c1C2 | 0.9 µM·h | 72 mL/min/kg | 0.5 h | 47% | 152 nM | 1.5 nM | 470 nM | 7.7 nM
28 | CCCC12CCC(=O)C(C)=C1c1ccc3[nH]ncc3c1C2 (racemic) | – | – | – | – | – | – | 976 nM | 12.6 nM
29 | CCC12CCC(=O)C=C1c1ccc3[nH]ncc3c1C2 (racemic) | – | – | – | – | > 1000 nM | 76 nM | > 10000 nM | 618 nM
30 | CCC12CCC(=O)C(Br)=C1c1ccc3[nH]ncc3c1C2=O (racemic) | – | – | – | – | 49 nM | 1.5 nM | 352 nM | 8 nM
31 | CCCCC12CCC(=O)C(Br)=C1c1ccc(O)cc1C2 (racemic) | 0.5 µM·h | 102 mL/min/kg | 1.5 h | 0% | – | – | – | –
32 | O=C1CC[C@@]2(CC3CC3)Cc3c(ccc4[nH]ncc34)C2=C1Br | – | – | – | – | – | – | 230 nM | 4 nM
33 | CC[C@@]12CCC(=O)C(C(F)(F)F)=C1c1ccc3[nH]ncc3c1C2 | 1.5 µM·h | 36 mL/min/kg | 0.7 h | 74% | 50 nM | 0.6 nM | 360 nM | 2.8 nM
34 | CCCCC12CCC(=O)C(C3CC3)=C1c1ccc3[nH]ncc3c1C2 (racemic) | – | – | – | – | – | – | 422 nM | 7 nM
35 | CCCC[C@@]12CCC(=O)C(CC)=C1c1ccc3[nH]nc(F)c3c1C2 | – | – | – | – | – | – | 23 nM | 0.3 nM
36 | CCCC[C@@]12CCC(=O)C(C(F)(F)F)=C1c1ccc3[nH]nc(F)c3c1C2 | – | – | – | – | – | – | 49.2 nM | 1 nM
37 | CC12CCC(=O)C(Br)=C1c1ccc3[nH]ncc3c1C2 (racemic) | – | – | – | – | – | – | 1990 nM | 26 nM
